Source: patent US20130004424A1, “METHODS FOR DETERMINING AGENTS TARGETING MENA ISOFORMS AND USES THEREOF FOR DIAGNOSIS AND TREATMENT OF METASTATIC TUMORS” (priority 2010, published 2013)

Assays:
[1] = system: Mena^INV cells; assay: in vivo invasion assay, collection needle containing EGF and erlotinib; settings: Mena^INV cells vs MTLn3-EGFP control cells; collection needle contained both EGF and erlotinib
Description: (B) Graphic of in vivo assay with needle collection. Primary tumor may be xenograft.
Collection needle contained both EGF and erlotinib. MTLn3-EGFP cells are control. **p<0.01, ***p<0.001.
Since cells expressing Mena^+ or Mena^INV/+ will move up an EGF gradient, when the cells expressing Mena^+ or Mena^INV/+ are in vivo, the cells expressing Mena^+ or Mena^INV/+ will move up the imposed EGF gradient and can be needle collected. If the putative agent does in fact inhibit Mena^+ or Mena^INV/+, the sensitivity of cells expressing Mena^+ or Mena^INV/+ drops and fewer cells will move up the EGF gradient.

[2] = system: Mena^INV cells; settings: both in vitro and in vivo; cited from earlier work

C#Cc1cccc(Nc2ncnc3cc(OCCOC)c(OCCOC)cc23)c1 [erlotinib]
sensitivity of in vivo invasion to inhibition by erlotinib [1]: less sensitive to inhibition
resistance of cells to EGFR inhibitor [2]: exhibit resistance
